From PubChem BioAssay AID2060898 (Molecular Pharmacology Branch, DTP, NCI, 2025)

Test system: 616215-338-R-J1-PDC complex spheroid viability
Assay: Anticancer human tumor 616215-338-R-J1-PDC patient-derived colon adenocarcinoma cell line growth inhibition [RAS]
Conditions: for IC50: curve of first compound; for viability, T/C: stronger effect = lower value
Summary of the method: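 Agents were tested in combination matrices in half-log decrements from a top concentration at or near clinical Cmax (10 microM if undetermined). Targets were multi-cell spheroids of tumour lines plus HUVEC and MSC stromal cells.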

[1] = second compound 0.000949 µM, first compound 0.0316 µM
[2] = second compound 0.000949 µM, first compound 0.1 µM
[3] = second compound 0.000949 µM, first compound 0.316 µM
[4] = second compound 0.000949 µM, first compound 1 µM
[5] = second compound 0.000949 µM, first compound 3.16 µM
[6] = second compound 0.000949 µM, first compound 10 µM
[7] = second compound 0.003 µM, first compound 0.0316 µM
[8] = second compound 0.003 µM, first compound 0.1 µM
[9] = second compound 0.003 µM, first compound 0.316 µM
[10] = second compound 0.003 µM, first compound 1 µM
[11] = second compound 0.003 µM, first compound 3.16 µM
[12] = second compound 0.003 µM, first compound 10 µM
[13] = second compound 0.00949 µM, first compound 0.0316 µM
[14] = second compound 0.00949 µM, first compound 0.1 µM
[15] = second compound 0.00949 µM, first compound 0.316 µM
[16] = second compound 0.00949 µM, first compound 1 µM
[17] = second compound 0.00949 µM, first compound 3.16 µM
[18] = second compound 0.00949 µM, first compound 10 µM
[19] = second compound 0.03 µM, first compound 0.0316 µM
[20] = second compound 0.03 µM, first compound 0.1 µM
[21] = second compound 0.03 µM, first compound 0.316 µM
[22] = second compound 0.03 µM, first compound 1 µM
[23] = second compound 0.03 µM, first compound 3.16 µM
[24] = second compound 0.03 µM, first compound 10 µM
[25] = second compound 0.0949 µM, first compound 0.0316 µM
[26] = second compound 0.0949 µM, first compound 0.1 µM
[27] = second compound 0.0949 µM, first compound 0.316 µM
[28] = second compound 0.0949 µM, first compound 1 µM
[29] = second compound 0.0949 µM, first compound 3.16 µM
[30] = second compound 0.0949 µM, first compound 10 µM
[31] = second compound 0.3 µM, first compound 0.0316 µM
[32] = second compound 0.3 µM, first compound 0.1 µM
[33] = second compound 0.3 µM, first compound 0.316 µM
[34] = second compound 0.3 µM, first compound 1 µM
[35] = second compound 0.3 µM, first compound 3.16 µM
[36] = second compound 0.3 µM, first compound 10 µM
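Note: spheroids exposed to agents for seven days before viability readout.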
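Throughout, for viability, T/C: 100% = DMSO vehicle control viability.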

## CC(C)NCC(C(=O)N1CCN(c2ncnc3c2C(C)CC3O)CC1)c1ccc(Cl)cc1 (stereo unspecified) + CCn1c(-c2cccnc2C(C)OC)c2c3cc(ccc31)N1CCOC(CC(NC(=O)C(C(C)C)N(C)C(=O)C3(F)CCN(C(=O)C#CC(C)(C)N(C)C)CC3)C(=O)N3CCCC(N3)C(=O)OCC(C)(C)C2)C1
Second compound 0.000949 µM
  IC50: 8.75 µM
Second compound 0.003 µM
  IC50: > 10 µM
Second compound 0.00949 µM
  IC50: > 10 µM
Second compound 0.03 µM
  IC50: 8.38 µM
Second compound 0.0949 µM
  IC50: 6.15 µM
Second compound 0.3 µM
  IC50: 3 µM
[1]
  viability, T/C: 106%
[2]
  viability, T/C: 106%
[3]
  viability, T/C: 102%
[4]
  viability, T/C: 113%
[5]
  viability, T/C: 90.7%
[6]
  viability, T/C: 44.7%
[7]
  viability, T/C: 98.1%
[8]
  viability, T/C: 95.9%
[9]
  viability, T/C: 94%
[10]
  viability, T/C: 98.4%
[11]
  viability, T/C: 97.4%
[12]
  viability, T/C: 50.9%
[13]
  viability, T/C: 112%
[14]
  viability, T/C: 101%
[15]
  viability, T/C: 93.5%
[16]
  viability, T/C: 98.5%
[17]
  viability, T/C: 85.5%
[18]
  viability, T/C: 51.1%
[19]
  viability, T/C: 99.7%
[20]
  viability, T/C: 98.8%
[21]
  viability, T/C: 105%
[22]
  viability, T/C: 111%
[23]
  viability, T/C: 96.2%
[24]
  viability, T/C: 41.4%
[25]
  viability, T/C: 118%
[26]
  viability, T/C: 108%
[27]
  viability, T/C: 111%
[28]
  viability, T/C: 97.2%
[29]
  viability, T/C: 73.9%
[30]
  viability, T/C: 32.4%
[31]
  viability, T/C: 116%
[32]
  viability, T/C: 116%
[33]
  viability, T/C: 108%
[34]
  viability, T/C: 85.6%
[35]
  viability, T/C: 48.1%
[36]
  viability, T/C: 28.6%

## CC(C)n1nc(-c2ccc3oc(N)nc3c2)c2c(N)ncnc21 + CCn1c(-c2cccnc2C(C)OC)c2c3cc(ccc31)N1CCOC(CC(NC(=O)C(C(C)C)N(C)C(=O)C3(F)CCN(C(=O)C#CC(C)(C)N(C)C)CC3)C(=O)N3CCCC(N3)C(=O)OCC(C)(C)C2)C1
Second compound 0.000949 µM
  IC50: > 0.1 µM
Second compound 0.003 µM
  IC50: > 0.1 µM
Second compound 0.00949 µM
  IC50: > 0.1 µM
Second compound 0.03 µM
  IC50: > 0.1 µM
Second compound 0.0949 µM
  IC50: > 0.1 µM
Second compound 0.3 µM
  IC50: 0.0662 µM
Second compound 0.000949 µM, first compound 0.000316 µM
  viability, T/C: 95.6%
Second compound 0.000949 µM, first compound 0.001 µM
  viability, T/C: 97.1%
Second compound 0.000949 µM, first compound 0.00316 µM
  viability, T/C: 108%
Second compound 0.000949 µM, first compound 0.01 µM
  viability, T/C: 96.9%
[1]
  viability, T/C: 112%
[2]
  viability, T/C: 72.2%
Second compound 0.003 µM, first compound 0.000316 µM
  viability, T/C: 102%
Second compound 0.003 µM, first compound 0.001 µM
  viability, T/C: 98.9%
Second compound 0.003 µM, first compound 0.00316 µM
  viability, T/C: 97.8%
Second compound 0.003 µM, first compound 0.01 µM
  viability, T/C: 105%
[7]
  viability, T/C: 116%
[8]
  viability, T/C: 74.1%
Second compound 0.00949 µM, first compound 0.000316 µM
  viability, T/C: 100%
Second compound 0.00949 µM, first compound 0.001 µM
  viability, T/C: 90.7%
Second compound 0.00949 µM, first compound 0.00316 µM
  viability, T/C: 101%
Second compound 0.00949 µM, first compound 0.01 µM
  viability, T/C: 111%
[13]
  viability, T/C: 111%
[14]
  viability, T/C: 66.6%
Second compound 0.03 µM, first compound 0.000316 µM
  viability, T/C: 95.5%
Second compound 0.03 µM, first compound 0.001 µM
  viability, T/C: 96.1%
Second compound 0.03 µM, first compound 0.00316 µM
  viability, T/C: 115%
Second compound 0.03 µM, first compound 0.01 µM
  viability, T/C: 106%
[19]
  viability, T/C: 102%
[20]
  viability, T/C: 64.1%
Second compound 0.0949 µM, first compound 0.000316 µM
  viability, T/C: 109%
Second compound 0.0949 µM, first compound 0.001 µM
  viability, T/C: 109%
Second compound 0.0949 µM, first compound 0.00316 µM
  viability, T/C: 113%
Second compound 0.0949 µM, first compound 0.01 µM
  viability, T/C: 110%
[25]
  viability, T/C: 108%
[26]
  viability, T/C: 55.8%
Second compound 0.3 µM, first compound 0.000316 µM
  viability, T/C: 106%
Second compound 0.3 µM, first compound 0.001 µM
  viability, T/C: 106%
Second compound 0.3 µM, first compound 0.00316 µM
  viability, T/C: 103%
Second compound 0.3 µM, first compound 0.01 µM
  viability, T/C: 82.1%
[31]
  viability, T/C: 71.8%
[32]
  viability, T/C: 38.9%

## C[C@@H](NC(=O)c1ncnc(N)c1Cl)c1ncc(C(=O)Nc2cc(C(F)(F)F)c(Cl)cn2)s1 + CCn1c(-c2cccnc2C(C)OC)c2c3cc(ccc31)N1CCOC(CC(NC(=O)C(C(C)C)N(C)C(=O)C3(F)CCN(C(=O)C#CC(C)(C)N(C)C)CC3)C(=O)N3CCCC(N3)C(=O)OCC(C)(C)C2)C1
Second compound 0.000949 µM
  IC50: > 10 µM
Second compound 0.003 µM
  IC50: > 10 µM
Second compound 0.00949 µM
  IC50: > 10 µM
Second compound 0.03 µM
  IC50: > 10 µM
Second compound 0.0949 µM
  IC50: > 10 µM
Second compound 0.3 µM
  IC50: 6.23 µM
[1]
  viability, T/C: 108%
[2]
  viability, T/C: 103%
[3]
  viability, T/C: 100%
[4]
  viability, T/C: 117%
[5]
  viability, T/C: 113%
[6]
  viability, T/C: 61.5%
[7]
  viability, T/C: 94.2%
[8]
  viability, T/C: 105%
[9]
  viability, T/C: 104%
[10]
  viability, T/C: 120%
[11]
  viability, T/C: 107%
[12]
  viability, T/C: 68%
[13]
  viability, T/C: 103%
[14]
  viability, T/C: 100%
[15]
  viability, T/C: 101%
[16]
  viability, T/C: 112%
[17]
  viability, T/C: 121%
[18]
  viability, T/C: 72.7%
[19]
  viability, T/C: 101%
[20]
  viability, T/C: 98.6%
[21]
  viability, T/C: 116%
[22]
  viability, T/C: 111%
[23]
  viability, T/C: 112%
[24]
  viability, T/C: 68.6%
[25]
  viability, T/C: 109%
[26]
  viability, T/C: 115%
[27]
  viability, T/C: 116%
[28]
  viability, T/C: 86.1%
[29]
  viability, T/C: 90%
[30]
  viability, T/C: 54.6%
[31]
  viability, T/C: 113%
[32]
  viability, T/C: 111%
[33]
  viability, T/C: 100%
[34]
  viability, T/C: 79.8%
[35]
  viability, T/C: 66.5%
[36]
  viability, T/C: 39.7%
